# Where “and” joins values, the source holds several entries; their conditions need not be identical. Equal values may be shown once. Read-outs that look alike come from different tables or passages of the source.
# Tests used:
# [1] = biological target: T1, EPPasePGM (EPPase PGM domain, residues 69 to 330) (Bombyx mori, UniProt Q7YTB0); assay: Phosphatase activity; details: for Dephosphorylation by EPPasePGM (substrate specificity): 50 nM EPPasePGM, 1 mM compound, pH 7.5, pNPP as positive control, data not shown; for Km: substrate of wild-type EPPasePGM; for Km / kcat: pH 7.5, 37 °C; for kcat: substrate turnover by wild-type EPPasePGM, 50 nM enzyme
# T1 sequence (Q7YTB0 69-330 isoform Q7YTB0-1): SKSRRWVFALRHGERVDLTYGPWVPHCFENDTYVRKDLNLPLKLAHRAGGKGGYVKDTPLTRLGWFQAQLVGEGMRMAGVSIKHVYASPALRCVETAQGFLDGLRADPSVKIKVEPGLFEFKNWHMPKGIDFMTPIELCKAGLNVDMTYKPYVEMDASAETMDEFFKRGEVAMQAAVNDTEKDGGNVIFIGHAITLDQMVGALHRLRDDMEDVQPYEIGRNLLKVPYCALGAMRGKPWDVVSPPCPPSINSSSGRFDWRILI
# [2] = tested on: EPPase; details: native or recombinant full-length EPPase; ref [9]; cited from earlier work
# [3] = tested on: EPPase; assay: Phosphatase activity of native or recombinant full-length EPPase; type: biochemical, Bombyx mori; details: E22P versus pTyr-peptide
# [4] = biological target: T2, EPPasePGM (Bombyx mori, UniProt Q7YTB0); assay: Inhibition of EPPasePGM pNPP hydrolysis; type: biochemical
# T2 sequence (Q7YTB0 69-330 isoform Q7YTB0-1): T1 sequence (Q7YTB0 69-330 isoform Q7YTB0-1)
# [5] = biological target: Sts-1PGM (Mus musculus, UniProt Q8BGG7); assay: Phosphatase activity; type: biochemical; details: for Km: substrate of Sts-1PGM; for kcat: substrate turnover by Sts-1PGM
# Sequence of Sts-1PGM (Q8BGG7 369-638 limits assumed): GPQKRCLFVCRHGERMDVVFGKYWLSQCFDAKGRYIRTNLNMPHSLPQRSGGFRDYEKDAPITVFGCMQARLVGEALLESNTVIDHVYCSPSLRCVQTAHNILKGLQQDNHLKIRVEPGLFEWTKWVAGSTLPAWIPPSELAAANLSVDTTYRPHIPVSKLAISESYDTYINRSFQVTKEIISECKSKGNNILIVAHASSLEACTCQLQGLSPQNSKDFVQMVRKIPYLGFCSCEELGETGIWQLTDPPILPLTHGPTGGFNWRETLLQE
# [6] = biological target: EPPasePGM K196S (Bombyx mori, UniProt Q7YTB0, K526S); type: biochemical
# Sequence of EPPasePGM K196S (Q7YTB0 399-660 K526S): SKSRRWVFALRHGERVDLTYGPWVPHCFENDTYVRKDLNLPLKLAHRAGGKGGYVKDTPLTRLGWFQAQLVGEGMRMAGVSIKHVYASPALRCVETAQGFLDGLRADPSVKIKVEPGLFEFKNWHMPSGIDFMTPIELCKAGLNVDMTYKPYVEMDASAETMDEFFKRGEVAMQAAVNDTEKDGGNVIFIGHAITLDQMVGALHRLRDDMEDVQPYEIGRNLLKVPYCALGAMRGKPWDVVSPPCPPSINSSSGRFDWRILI
# [7] = biological target: T3, EPPasePGM K292S (Bombyx mori, UniProt Q7YTB0, K622S); type: biochemical
# T3 sequence (Q7YTB0 399-660 K622S): as the sequence (Q7YTB0 399-660 K526S) above, with S128K, K224S counted along it
# [8] = biological target: T3, EPPasePGM K292S; assay: biochemical
# [9] = biological target: EPPasePGM K196D (Bombyx mori, UniProt Q7YTB0, K526D); assay: Phosphatase activity of EPPasePGM K196D mutant; type: biochemical
# Sequence of EPPasePGM K196D (Q7YTB0 399-660 K526D): as the sequence (Q7YTB0 399-660 K526S) above, with S128D counted along it
# [10] = IC50, 1 mM pNPP, 50 nM EPPasePGM, 37 °C, pH 7.5
# [11] = IC50, 1 mM pNPP, 50 nM EPPasePGM, 37 °C, text values in mM
compound,measurement,setting,value
O=P(O)(O)Oc1cccc2ccccc12 [1-naphtyl phosphate],Dephosphorylation by EPPasePGM (substrate specificity),[1],failed to dephosphorylate
"C[C@H](C(CCC(C)(C)O)OP(=O)(O)O)[C@H]1CCC2(O)C3=CC(=O)[C@@H]4C[C@@H](O)[C@@H](O)C[C@]4(C)[C@H]3CC[C@]12C (stereo partly drawn) [E22P, ecdysone 22-phosphate]",Km,[2],5.9 µM
same,kcat,[2],0.94 s⁻¹
same,kcat for E22P relative to pTyr-peptide (times lower),[3],8
O=C(O)[C@H](O)[C@@H](O)C(=O)O [L-tartrate],Inhibition of pNPP hydrolysis by EPPasePGM,[4]; concentrations as high as 100 mM,did not inhibit
O=P(O)(O)O [Phosphate],Ki,[4],25800 µM
same,IC50,[4]; [10],47.1 mM
same,IC50,[4]; [11],47 ± 11 mM
"C[C@]12C=CC(=O)C=C1CC[C@@H]1[C@@H]2[C@@H](O)C[C@@]2(C)[C@H]1CC[C@]2(O)C(=O)COP(=O)([O-])[O-].[Na+].[Na+] [Prednisolone 21P, prednisolone 21-phosphate disodium salt]",Km,[5],450 ± 90 µM
same,kcat,[5],0.15 s⁻¹
same,Km,[6],1060 ± 240 µM
same,kcat,[6],6.1 s⁻¹
same,Km,[1],650 ± 170 µM
same,kcat,[1],5.9 s⁻¹
same,Km,[7],510 ± 230 µM
same,kcat,[7],4.2 s⁻¹
[O]=[W](=[O])([OH])[OH] [Tungstate],IC50,[4],0.052 mM
same,Ki,[4],34 µM
same,IC50,[8],70 µM
[O]=[V]([OH])([OH])[OH] [Vanadate],Ki,[4],1900 µM
same,IC50,[4]; [10],2.91 mM
same,IC50,[4]; [11],2.9 ± 0.43 mM
O=C(CO)[C@@H](O)[C@H](O)[C@H](O)COP(=O)(O)O [fructose-6-phosphate],Dephosphorylation by EPPasePGM (substrate specificity),[1],failed to dephosphorylate
"O=[N+]([O-])c1ccc(OP(=O)(O)O)cc1 [pNPP, para-nitrophenylphosphate]",Km,[2],13100 µM
same,kcat,[2],135 s⁻¹
same,Km,[5],500 ± 70 µM
same,kcat,[5],70.1 s⁻¹
same,Km,[6],2700 ± 160 µM
same,kcat,[6],5.0 s⁻¹
same,kcat of EPPasePGM relative to Sts-1PGM (fold slower),[1]; pNPP hydrolysis,6
same,kcat/Km of EPPasePGM relative to Sts-1PGM (fold slower),[1]; pNPP hydrolysis,20
same,Km,[1],1900 ± 200 µM
same,kcat,[1],11.7 ± 0.6 s⁻¹ and 11.7 s⁻¹
same,Km,[7],2400 ± 200 µM
same,kcat,[7],6.3 s⁻¹
same,Km,[9],2500 ± 200 µM
same,kcat,[9],2.4 s⁻¹
"C[C@H]1C[C@H]2[C@@H]3CCC4=CC(=O)C=C[C@]4(C)[C@@]3(F)[C@@H](O)C[C@]2(C)[C@@]1(O)C(=O)COP(=O)([O-])[O-].[Na+].[Na+] [β-Methasone 21P, β-methasone 21-phosphate disodium salt]",Km,[1],730 ± 320 µM
same,kcat,[1],10.2 s⁻¹
O=P(O)(O)OC[C@H]1O[C@@H](O)[C@H](O)[C@@H](O)[C@@H]1O [β-glucose-6-phosphate],Dephosphorylation by EPPasePGM (substrate specificity),[1],failed to dephosphorylate
O=P(O)(O)OC(CO)CO [β-phospho-glycerol],Dephosphorylation by EPPasePGM (substrate specificity),[1],failed to dephosphorylate
O=P(O)(O)OC[C@H]1O[C@@H](O)[C@H](O)[C@@H]1O [β-ribose-5-phosphate],Dephosphorylation by EPPasePGM (substrate specificity),[1],failed to dephosphorylate
